Laboratory results published in PubChem BioAssay AID300 (DTP/NCI, 2004).
Where “and” joins values, the source holds several entries; their conditions need not be identical. Equal values may be shown once. Inconclusive results are not listed. Rule for the calls: active = survival T/C of 150% or more; inactive = T/C below 125% in these data. *1 amine or outer side, *2 acyl side, *3 side chain or, on linkers, in order; H or OH if unused. Where a SMILES comes first, the peptide text is derived from it. Bridges are numbered along the chain shown (N, C = ends). Roman numbers before positions name the chains, in order. [ ]: non-standard residue; d: D form. Actinocin(9to1) = Cc1c2oc3c(C)ccc(C(=O)[*:1])c3nc-2c(C(=O)[*:2])c(N)c1=O; aThr = C[C@H](O)[C@H](N)C(=O)O; NMeV = CN[C@H](C(=O)O)C(C)C; Sar = CNCC(=O)O

Test system: Madison 109 lung carcinoma i.m., mice, median survival
Experiment: NCI In Vivo Anticancer Drug Screen. Data for tumor model Madison 109 Lung Carcinoma (intramuscular) in unknown mice
Settings: endpoint: median survival time, higher = longer survival
Procedure: The antitumor activity of compounds was measured in mice bearing transplantable tumors. Survival or tumor size were measured and the results are expressed as the measurement made in the treated group (T) divided by the measurement made in the vehicle treated control group (C). The tumor model used in this assay is Madison 109 Lung Carcinoma (intramuscular) in unknown mice

[1] = dose: 5.5 mg/kg/injection, schedule: Q01DX005 (ip), vehicle: water
[2] = dose: 52.5 mg/kg/injection, schedule: Q01DX005 (ip), vehicle: water
[3] = dose: 1.0 mg/kg/injection, schedule: Q01DX009 (ip), vehicle: saline
[4] = dose: 10.0 mg/kg/injection, schedule: Q01DX009 (ip), vehicle: water
[5] = dose: 20.0 mg/kg/injection, schedule: Q01DX009 (ip), vehicle: water
[6] = dose: 40.0 mg/kg/injection, schedule: Q01DX009 (ip), vehicle: water
[7] = dose: 80.0 mg/kg/injection, schedule: Q01DX009 (ip), vehicle: water

Measured: T/C

COc1cccc2c1C(=O)c1c(O)c3c(c(O)c1C2=O)CC(O)(C(C)=O)CC3OC1CC(N)C(O)C(C)O1 (stereo unspecified)
inactive: [1] 123 % of control | dose: 8.0 mg/kg/injection, schedule: Q01DX005 (ip), vehicle: water 123 % of control | dose: 16.5 mg/kg/injection, schedule: Q01DX005 (ip), vehicle: water 119 % of control and 120 % of control | dose: 24.0 mg/kg/injection, schedule: Q01DX005 (ip), vehicle: water 73 % of control | dose: 27.5 mg/kg/injection, schedule: Q01DX005 (ip), vehicle: water 52 % of control | dose: 31.5 mg/kg/injection, schedule: Q01DX005 (ip), vehicle: water 123 % of control | dose: 40.0 mg/kg/injection, schedule: Q01DX005 (ip), vehicle: water 114 % of control | [2] 114 % of control

CN(C)c1nc(N(C)C)nc(N(C)C)n1
inactive: dose: 20.0 mg/kg/injection, schedule: Q01DX009 (ip), vehicle: other 89 % of control | dose: 40.0 mg/kg/injection, schedule: Q01DX009 (ip), vehicle: other 96 % of control

C/C(=N/N=C(N)N)c1ccc(NC(=O)Nc2ccc(/C(C)=N/N=C(N)N)cc2)cc1
inactive: dose: 25.0 mg/kg/injection, schedule: Q01DX009 (ip), vehicle: water 115 % of control | dose: 50.0 mg/kg/injection, schedule: Q01DX009 (ip), vehicle: water 106 % of control

c1ccc([C@H]2CN3CCSC3=N2)cc1
inactive: dose: 0.75 mg/kg/injection, schedule: Q01DX009 (ip), vehicle: water 114 % of control | dose: 1.5 mg/kg/injection, schedule: Q01DX009 (ip), vehicle: water 122 % of control | dose: 3.0 mg/kg/injection, schedule: Q01DX009 (ip), vehicle: water 97 % of control | dose: 6.0 mg/kg/injection, schedule: Q01DX009 (ip), vehicle: water 108 % of control

N[C@@H](Cc1ccc(N(CCCl)CCCl)cc1)C(=O)O
inactive: dose: 0.2 mg/kg/injection, schedule: Q01DX009 (ip), vehicle: saline 102 % of control | dose: 0.4 mg/kg/injection, schedule: Q01DX009 (ip), vehicle: saline 100 % of control | dose: 0.6 mg/kg/injection, schedule: Q01DX009 (ip), vehicle: saline 100 % of control | dose: 0.8 mg/kg/injection, schedule: Q01DX009 (ip), vehicle: saline 111 % of control | [3] 105 % of control

Cc1c2oc3c(C)ccc(C(=O)N[C@@H]4C(=O)N[C@H](C(C)C)C(=O)N5CCC[C@H]5C(=O)N(C)CC(=O)N(C)[C@@H](C(C)C)C(=O)O[C@H]4C)c3nc-2c(C(=O)N[C@@H]2C(=O)N[C@H](C(C)C)C(=O)N3CCC[C@H]3C(=O)N(C)CC(=O)N(C)[C@@H](C(C)C)C(=O)O[C@H]2C)c(N)c1=O (I: [aThr][dV]P[Sar][NMeV] / II: [aThr][dV]P[Sar][NMeV]; ester I:1-I:C, II:1-II:C; linker I:N-II:N via Actinocin(9to1))
inactive: dose: 0.04 mg/kg/injection, schedule: Q02DX009 (ip), vehicle: water 100 % of control | dose: 0.05 mg/kg/injection, schedule: Q02DX009 (ip), vehicle: water 108 % of control | dose: 0.05 mg/kg/injection, schedule: Q03DX009 (ip), vehicle: water 110 % of control | dose: 0.05 mg/kg/injection, schedule: Q04DX009 (ip), vehicle: water 106 % of control | dose: 0.06 mg/kg/injection, schedule: Q02DX009 (ip), vehicle: water 100 % of control | dose: 0.08 mg/kg/injection, schedule: Q02DX009 (ip), vehicle: water 121 % of control | dose: 0.08 mg/kg/injection, schedule: Q04DX009 (ip), vehicle: water 110 % of control | dose: 0.1 mg/kg/injection, schedule: Q01DX001 (ip), vehicle: water 112 % of control | dose: 0.2 mg/kg/injection, schedule: Q01DX001 (ip), vehicle: water 110 % of control | dose: 0.4 mg/kg/injection, schedule: Q01DX001 (ip), vehicle: water 110 % of control

C[C@@H]1C[C@@H]([C@H](O)CC2CC(=O)NC(=O)C2)C(=O)[C@@H](C)C1
inactive: [4] 94 % of control | [5] 100 % of control

COc1cccc2c1C(=O)c1c(O)c3c(c(O)c1C2=O)CC(O)(C(=O)CO)CC3OC1CC(N)C(O)C(C)O1 (stereo unspecified)
inactive: [1] 100 % of control | [2] 102 % of control

O=S(=O)(n1ccnc1)C(F)(F)F
inactive: dose: 5.0 mg/kg/injection, schedule: Q01DX001 (ip), vehicle: saline 98 % of control | dose: 8.4 mg/kg/injection, schedule: Q01DX001 (ip), vehicle: saline 88 % of control | dose: 14.0 mg/kg/injection, schedule: Q01DX001 (ip), vehicle: saline 92 % of control

COC1=C(OC)C(=O)C(C/C=C(\C)CC/C=C(\C)CC/C=C(\C)CC/C=C(\C)CC/C=C(\C)CC/C=C(\C)CC/C=C(\C)CC/C=C(\C)CC/C=C(\C)CCC=C(C)C)=C(C)C1=O
inactive: dose: 1.0 mg/kg/injection, schedule: Q01DX009 (ip), vehicle: other 95 % of control | dose: 2.0 mg/kg/injection, schedule: Q01DX009 (ip), vehicle: other 97 % of control | dose: 4.0 mg/kg/injection, schedule: Q01DX009 (ip), vehicle: other 94 % of control | dose: 8.0 mg/kg/injection, schedule: Q01DX009 (ip), vehicle: other 94 % of control | dose: 16.0 mg/kg/injection, schedule: Q01DX009 (ip), vehicle: other 102 % of control

CC1CCC(NC(=O)N(CCCl)N=O)CC1 (stereo unspecified)
inactive: dose: 0.5 mg/kg/injection, schedule: Q01DX009 (ip), vehicle: saline 100 % of control | [3] 93 % of control | dose: 2.0 mg/kg/injection, schedule: Q01DX001 (ip), vehicle: saline 88 % of control | dose: 2.0 mg/kg/injection, schedule: Q01DX009 (ip), vehicle: saline 95 % of control | dose: 4.0 mg/kg/injection, schedule: Q01DX001 (ip), vehicle: saline 90 % of control | dose: 4.0 mg/kg/injection, schedule: Q01DX009 (ip), vehicle: saline 107 % of control | dose: 8.0 mg/kg/injection, schedule: Q01DX001 (ip), vehicle: saline 93 % of control | dose: 8.0 mg/kg/injection, schedule: Q01DX009 (ip), vehicle: saline 115 % of control | dose: 16.0 mg/kg/injection, schedule: Q01DX001 (ip), vehicle: saline 100 % of control | dose: 32.0 mg/kg/injection, schedule: Q01DX001 (ip), vehicle: saline 106 % of control

COc1ccc(C[C@H](N)C(=O)NC2C(CO)OC(n3cnc4c(N(C)C)ncnc43)C2O)cc1 (stereo partly specified)
inactive: [4] 104 % of control | [5] 105 % of control | [6] 104 % of control | [7] 105 % of control

O=[N+]([O-])c1ccc(Cl)c([N+](=O)[O-])c1
inactive: [4] 119 % of control | dose: 40.0 mg/kg/injection, schedule: Q01DX001 (ip), vehicle: water 116 % of control | [6] 119 % of control | dose: 80.0 mg/kg/injection, schedule: Q01DX001 (ip), vehicle: water 100 % of control | [7] 109 % of control | dose: 160.0 mg/kg/injection, schedule: Q01DX001 (ip), vehicle: water 109 % of control | dose: 160.0 mg/kg/injection, schedule: Q01DX009 (ip), vehicle: water 116 % of control | dose: 320.0 mg/kg/injection, schedule: Q01DX001 (ip), vehicle: water 119 % of control | dose: 640.0 mg/kg/injection, schedule: Q01DX001 (ip), vehicle: water 90 % of control
